Measured values published in publication PMC7946689, “Galactose-Modified PH-Sensitive Niosomes for Controlled Release and Hepatocellular Carcinoma Target Delivery of Tanshinone IIA” (AAPS PharmSciTech, 2021).
Where two headings read alike, the source gives them in different places.

How the values were obtained:
[1] = set-up: method as in PMID 28680091; conditions: cited from earlier work
[2] = Biodistribution after tail vein injection; format: in vivo; conditions: SD rats, 10 mg/kg, all time periods tested (0.083, 4, 12 h)
Protocol: Twenty-seven male SD rats were randomly divided into three groups and administered in the same way. Rats were sacrificed after 0.083, 4, and 12 h, respectively, and heart, liver, spleen, lung, and kidney tissues were collected immediately. Any residual blood on the tissue was washed with precooled normal saline, and the washed tissue was blotted up with filter paper and weighed. The tissue was then homogenized in 5 times the mass of precooled normal saline. Homogenized tissue samples were centrifuged at 9391.2×g for 5 min to separate the tissue homogenate and were stored at −20°C ([39]). After treatment of plasma and tissue homogenate, the obtained supernatant was concentrated by nitrogen blowing and determined by HPLC.

HepG2 cells [3] = experiment: Cell cycle by flow cytometry (PI); format: cell-based; conditions: 5 μg/mL tanshinone IIA equivalent, 24 h, control 28.98%
Protocol: The test method was performed according to the method provided with the apoptosis test until two centrifugations were completed, and the supernatant was discarded. Next, 1 mL of ice bath precooled 70% ethanol was added to fix the cells for 24 h at 4°C, then, the fixed cells were centrifuged at 1000×g for 5 min ([36]). After resuspending the cells, the cells were centrifuged and precipitated again, and the supernatant was discarded. A total of 500 μL PI staining solution was added to the cells, and the cells were slowly and sufficiently resuspended and bathed for 30 min in the dark at 37°C. Flow cytometry was completed within 24 h after staining ([37]).

[4] = set-up: method as in PMID 28680091; conditions: cited from earlier work; remark: listed apart in the source
[5] = Pharmacokinetics after tail vein injection; format: in vivo; conditions: SD rats
Protocol: Twelve male SD rats (weighing 200–250 g) were randomly divided into three groups. Rats were fasted for 12 h but drank water freely before administration ([38]). The first, second, and third groups were injected with Free TanIIA, TanIIA-NSVs, and Gal-pH-TanIIA-NSVs at an equivalent tanshinone IIA dose of 10 mg/kg via tail vein, respectively. Orbital blood was taken at 0.083, 0.25, 0.5, 1, 2, 4, 6, 8, 12, and 24 h after administration. Blood was transferred to a centrifuge tube coated with heparin sodium and centrifuged at 9391.2×g for 5 min to prepare plasma that was stored at −20°C ([39]).
After treatment of plasma and tissue homogenate, the obtained supernatant was concentrated by nitrogen blowing and determined by HPLC.

HepG2 cells [6] = experiment: Cell apoptosis by flow cytometry (Annexin V-FITC/PI); format: cell-based; conditions: 5 μg/mL tanshinone IIA equivalent, 24 h, control 57.33%
Protocol: HepG2 cells were seeded in 6-well plates at a density of 2 × 10^5 cells per well for 24 h and treated with tanshinone IIA solution (Free TanIIA) and tanshinone IIA-loaded niosomes (TanIIA-NSVs, Gal-pH-TanIIA-NSVs) at an equivalent tanshinone IIA dose of 5 μg/mL for 24 h. Another group was treated with PBS for the same duration as the control group. After incubation, the cell culture medium was transferred to a 2-mL centrifuge tube, and cells digested by a trypsin-EDTA solution were added to the cell culture medium collected previously. Subsequently, the cells were mixed, transferred to a centrifuge tube, and centrifuged at 1000×g for 5 min ([34]). The supernatant was discarded, and the cells were gently resuspended with PBS and counted. A certain amount of resuspended cells were centrifuged in a similar fashion, the supernatant was discarded (PBS was removed), and 500 μL of binding buffer was added. Then, the cells were gently resuspended, and 5 μL Annexin V-FITC was added. After mixing, 5 μL propidium iodide (PI) staining solution was added to the cells, gently mixed, and incubated for 10 min in the dark at room temperature (20–25°C). Flow cytometry was then performed ([35]).

A2780 cells = experiment: CCK8 cell viability assay; format: cell-based; conditions: Homo sapiens, 24 h, equivalent tanshinone IIA dose
Protocol: (§1) A2780, HCT8, HepG2, and Huh7 cells were seeded in 96-well plates at a density of 4 × 10^4 cells per well for 24 h ([32]) and treated with complete medium containing a series of blank niosomes (NSVs, Gal-NSVs, pH-NSVs, Gal-pH-NSVs) for 24 h. Subsequently, the culture medium was discarded, and CCK8 solution was added to the cells. Then, cells were continuously cultured for 2 h at 37°C. The absorbance value of each well was measured at 450 nm by a microplate spectrophotometer (BIO-RAD xMark, USA). The control group and blank group were included in the experiment. […] Cell viability was calculated according to the following formula ([33]): Cell viability%=Atest−Ao/Acontrast−Ao×100%
(§2) In the formula, Atest is the absorbance value of the test group, Acontrast is the absorbance value of the control group, and A0 is the absorbance value of the blank group.
(§3) A2780, HCT8, HepG2, and Huh7 cells were seeded in 96-well plates for 24 h and treated with serial concentrations of tanshinone IIA solution (Free TanIIA) and tanshinone IIA-loaded niosomes (TanIIA-NSVs, Gal-TanIIA-NSVs, pH-TanIIA-NSVs, Gal-pH-TanIIA-NSVs) at an equivalent tanshinone IIA dose for 24 h. Then, the culture medium was discarded, CCK8 solution was added to the cells, and cells were continuously cultured for 2 h at 37°C. The absorbance value of each well was measured at 450 nm by a microplate spectrophotometer ([33]).

Huh7 cells = experiment: CCK8 cell viability assay; format: cell-based; conditions: Homo sapiens, Huh-7, 24 h, equivalent tanshinone IIA dose
Protocol: as §1, §2, §3

HepG2 cells [7] = experiment: CCK8 cell viability assay; format: cell-based; conditions: Homo sapiens, 24 h, equivalent tanshinone IIA dose
Protocol: as §1, §2, §3

HCT8 cells = experiment: CCK8 cell viability assay; format: cell-based; conditions: Homo sapiens, HCT-8, 24 h, equivalent tanshinone IIA dose
Protocol: as §1, §2, §3

[8] = 10 mg/kg tanshinone IIA equivalent, tail vein

For `Cc1coc2c1C(=O)C(=O)c1c-2ccc2c1CCCC2(C)C` [Free TanIIA, Tanshinone IIA], the Solubility in water [1] is listed as “insolubility in water”, the “Drug level in kidney tissue” value [2] is listed as “relatively high drug levels” and the S phase distribution (HepG2 cells [3]) is listed as 50.53%. The half-life [4] was “short half-life”, the “Plasma concentration by HPLC” value ([5]; 12 h after injection, 10 mg/kg) was “could not be detected” and the “AUC0–t” value [5, 8] was 7.70 ± 1.51 (μg/mL)·h. The “AUC0–∞” value [5, 8] was 8.81 ± 1.65 (μg/mL)·h, the CL [5, 8] was 0.284 ± 0.026 (mg)/(μg/mL)/h and the Vd [5, 8] was 1.26 ± 0.09 (mg)/(μg/mL). For the same compound, the half-life ([5]; male, rat, plasma, iv, 10 mg/kg tanshinone IIA equivalent, tail vein) was 3.09 ± 0.59 h, the MRT last ([5]; male, rat, plasma, iv, 10 mg/kg tanshinone IIA equivalent, tail vein, read-out: MRT0–t) was 2.23 ± 0.2 h and the MRT inf ([5]; male, rat, plasma, iv, 10 mg/kg tanshinone IIA equivalent, tail vein, read-out: MRT0–∞) was 3.53 ± 0.63 h. The “Apoptotic rate (early + late apoptosis)” value (HepG2 cells [6]) was 78.34%, the IC50 (A2780 cells) was 2.44 µg/mL and the IC50 (Huh7 cells) was 2.5 µg/mL. The IC50 (HepG2 cells [7]) was 2.26 µg/mL and the IC50 (HCT8 cells) was 2.42 µg/mL.
